From patent US11312687B2, “7H-azulene [1,2,3-i,j] isoquinolin-7-one compound, single crystal and use thereof” (Hunan University of Chinese Medicine, priority 2017, dated 2022)
Like-named read-outs stand apart in the source and are kept apart here.

Tested on: PC12 cells damaged by Aβ25-35
Test: Protective effect on PC12 cells damaged by Aβ25-35 (MTT cell viability)
Format: cell-based, rat
Excerpt: Protective effect of 6-hydroxy-5,8-dimethoxy-7H-azulene [1,2,3-i,j] isoquinolin-7-one on PC12 cells damaged by Aβ25-35: cell seeding in the 96-well plate was the same as above, and the experiment was divided into 5 groups, 4 holes in each group.

## COc1cc2ccnc3c2c(c1O)-c1c-3cccc(OC)c1=O [6-hydroxy-5,8-dimethoxy-7H-azulene [1,2,3-i,j] isoquinolin-7-one]
Rattus norvegicus, PC-12, 0.5 ug·mL^-1 sample, 30 μmol/L Aβ25-35, 24 h, MTT, x ± s, n = 4
  viability at 0.5 µg/mL: 85.8 ± 1.6%
Rattus norvegicus, PC-12, 1.0 ug·mL^-1 sample, 30 μmol/L Aβ25-35, 24 h, MTT, x ± s, n = 4, read-out: cell viability (%)
  viability at 1 µg/mL: 103 ± 1.8%
Rattus norvegicus, PC-12, 5.0 ug·mL^-1 sample, 30 μmol/L Aβ25-35, 24 h, MTT, x ± s, n = 4
  viability at 5 µg/mL: 77.4 ± 3.8%
Rattus norvegicus, PC-12, concentration of 1.0 μg·mL^-1, 30 μmol/L Aβ25-35, read-out: viability of PC12 damaged cells
  viability at 1 µg/mL: > 95%
Three different concentrations (0.5, 1.0, 5.0 μg·mL^-1), P<0.01 vs model group
  cell viability compared to model group: significantly increased cell viability
